Assay results taken from US11247976B2, “Synthetic ligands that modulate the activity of the RhlR quorum sensing receptor” (Wisconsin Alumni Research Foundation, priority 2016, dated 2022).

What was measured:
LasR = target: T1, LasR (Pseudomonas aeruginosa, UniProt P25084); test: Selectivity of RhlR antagonism over LasR antagonism (E. coli LasR reporter, vs 2 nM OdDHL); assay type: cell-based, P. aeruginosa; conditions: RhlR % antagonism divided by LasR % antagonism
T1 construct: expressed in transfected cells; host or cells: E. coli JLD271 (ΔsdiA) with pJN105L and pSC11
T1 sequence (P25084 whole entry): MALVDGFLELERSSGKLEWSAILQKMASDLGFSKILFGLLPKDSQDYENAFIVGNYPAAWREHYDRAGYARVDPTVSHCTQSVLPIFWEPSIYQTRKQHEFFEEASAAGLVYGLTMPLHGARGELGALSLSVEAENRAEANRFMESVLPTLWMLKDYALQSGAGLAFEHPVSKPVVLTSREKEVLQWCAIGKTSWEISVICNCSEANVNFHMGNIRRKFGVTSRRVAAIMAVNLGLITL
Description: All media and reagents for bacterial culture were purchased from commercial sources. Bacteria were cultured in Luria-Bertani broth (LB) at 37° C. with shaking at 200 rpm unless otherwise noted. The bacterial reporter strains used for this study were (i) the heterologous E. coli strain JLD271 (ΔsdiA) harboring the RhlR expression plasmid pJN105R2 and the rhlI-lacZ transcriptional fusion reporter pSC11-rhlI*, (ii) the heterologous E. coli strain JLD271 (ΔsdiA) harboring the LasR expression plasmid pJN105L and the […] transcriptional fusion reporter pSC11, and (iii) the P. aeruginosa strain PAO-JP2 (ΔlasrhlI) harboring the rhlI-gfp transcriptional fusion reporter prhlI-LVAgfp. […]
To evaluate the modulatory activities of library compounds on RhlR and LasR using E. coli reporters, the strains JLD271/pJN105R2/pSC11-rhlI* and JLD271/pJN105L/pSC11 were used, respectively, as previously described.^38, 51 The following modifications were used in the RhlR agonism reporter assay, non-native compounds (10 μM or 1 mM) were compared to 1 mM BHL as the positive control. […] For RhlR agonism assays, activities of test compounds were measured relative to 1 mM BHL (the concentration required to induce a maximal level of RhlR activity). […] Activity was measured relative to 10 μM BHL. Inhibition was calculated by subtracting 100% from the relative activity value. […]

RhlR = target: T2, RhlR (Pseudomonas aeruginosa, UniProt P54292); test: P. aeruginosa RhlR reporter antagonism assay vs 10 μM BHL (PAO-JP2/prhlI-LVAgfp); assay type: cell-based
T2 construct: expressed in transfected cells; host or cells: E. coli JLD271 (ΔsdiA) with pJN105R2 (arabinose-induced) and pSC11-rhlI*
T2 sequence (P54292 whole entry): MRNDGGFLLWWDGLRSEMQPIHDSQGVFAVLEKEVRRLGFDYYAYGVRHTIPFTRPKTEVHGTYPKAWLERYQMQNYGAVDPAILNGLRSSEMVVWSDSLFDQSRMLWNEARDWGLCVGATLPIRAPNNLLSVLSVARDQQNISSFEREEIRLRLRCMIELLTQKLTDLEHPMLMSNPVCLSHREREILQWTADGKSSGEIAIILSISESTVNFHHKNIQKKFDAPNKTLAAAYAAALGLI
Description: FIGS. 10A and B illustrate exemplary dose-response curves for RhlR antagonism in the E. coli JLD271/pJN105R2/pSC11-rhlI* reporter strain vs. 10 μM BHL (FIG. 10A) and in the P. aeruginosa PAO-JP2/prhlI-LVAgfp reporter strain vs. 10 μM BHL (FIG. 10B).
To evaluate the RhlR-modulatory activities of selected compounds in P. aeruginosa, the ΔlasIrhlI strain PAO-JP2 harboring plasmid prhlI-LVAgfp was used as previously reported.^38 Briefly, a subculture was prepared by diluting an overnight culture 1:100 in fresh LB and was grown to OD600=0.3. […] Subculture was treated with 100 nM OdDHL (to induce native expression of RhlR) by adding the appropriate amount of OdDHL stock solution in DMSO. The subculture was then dispensed ([…] aliquots) into each synthetic compound-containing well of the microtiter plate.
Plates were incubated at 37° C. for 6 h, and GFP production was monitored by using a Synergy 2 plate reader (λex=500 nm, λem=540 nm; BioTek, Winooski, Vt.) and quantified with Gen5 1.05 software (BioTek). The final OD600 for each well was measured to normalize GFP production to cell density. All synthetic compounds were tested in triplicate, and three separate trials were performed with unique cultures. Agonism dose-response analyses were performed by testing compounds over a range of concentrations with the RhlR reporter.

O=C(COc1ccc(I)cc1)N[C@H]1CCSC1=O [RN22]
Fold selectivity of RhlR antagonist over LasR antagonism (LasR; tested concentration 1 mM): 74 fold | Fold selectivity of RhlR antagonist over LasR antagonism (LasR; tested concentration 10 μm): 1.5 fold | concentration blocking native ligand activity by 50%, relative to EC50 of native ligand (RhlR; P. aeruginosa): less than 4 fold | RhlR antagonist activity in words (RhlR; P. aeruginosa reporter vs 10 μM BHL): maintained its strong inhibitory profile | IC50 (RhlR; P. aeruginosa reporter vs 10 μM BHL, read-out: IC50 for RhlR inhibition): 31 µM | Maximum Inhibition (%) (RhlR; P. aeruginosa reporter, relative to activation of 10 μM BHL alone): 85%
